Measurements as given in US20260364101A1, “OLEUROPEIN IN THE MANAGEMENT OF CANCER” (FUNDACIÓN MIGUEL SERVET, priority 2023, published 2026).
Entries after “also recorded” stand apart in the source; their conditions may differ.

Key:
CD4 T cells = assay: mixed lymphocyte reaction (MLR) with MDSCs as stimulator cells (FIG. 1c,d); type: cell-based, mouse
Procedure: MLR were carried out following standard procedures. Briefly, 100,000 MDSCs or TAMs from C57BL/6 mice were co-cultured in 96-well plates with 100,000 lymphocytes from BALB/c mice. Co-cultured cells were treated with 50 µM oleuropein and compared with control vehicle. After 5 days, T-lymphocyte activation, differentiation and proliferation were assessed by flow cytometry. T-cell activation and proliferation markers (Ki-67) and pro-inflammatory cytokine production (IL-2 and IFNγ) were evaluated by flow cytometry in CD4 and CD8 T cells as described before.
Surface and intracellular staining were carried out as described before with the following fluorochrome-conjugated antibody clones: AF488 anti-CD49d (R1-2), PE anti-CD4 (GK1.5), APCanti-CD8(53-6.7), brilliant Violet 510™ anti-I-A/I-E (M5/114.15.2,PE/Cyanine7anti-Ly-6G (1A8), and APC anti-CD80 (16-10A1) (Biolegend), FITC anti-IL-12 (C15.6) and BV421 anti-IL-2 (JES6-5H4) (BD Bioscience), APC-Vio® 770 anti-Ly-6C (REA796), PE REAfinity™ anti-F4/80 (REA126), and APC anti-CD68 (REA886) (Miltenyi), PerCP-Cyanine5.5 Anti-Human/Mouse CD11b (M1/70) (Tonbo), and AF488 anti-IFNγ (Clone XMG1.2) (BD Pharmigen). For human cells, it was used the following fluorochrome-conjugated antibodies: PerCP-Cy5.5-anti-CD11b (integrina alfa M) (M1/70), Violet Fluor 450 anti-CD14 antibody (61D3) (Tonbo), PE anti-CD115 (CSF-1R) (9-4D2-1E4) (Biolegend), PE-Cy™7 anti-CD11c (Clone B-ly6) (BD Bioscience), and APC anti-HLA-DR (REA517) (Miltenyi).

g-MDSC = assay: quantitative proteomics and Ingenuity Pathway Analysis of g-MDSC; type: cell-based, mouse
Procedure: (§1) Immunosuppressive myeloid cell subsets resembling tumor-infiltrating subsets (g-MDSCs, m-MDSCs and TAMs) were differentiated from mouse bone marrow following published procedures using conditioning medium produced by LLC tumor cells stably expressing GMCSF and MCSF cells. g- and m-MDSCs were purified using the myeloid-derived suppressor cell isolation kit (Miltenyi Biotec, Bergisch, Germany) according to manufacturer's recommendations. MDSCs and TAMs were seeded with 500 nM BML-275 or 50 μM oleuropein and incubated for seven days.
(§2) A unique proteomic experiment was carried out with five biological replicates per sample (m-MDSC, g-MDSC and TAM). Cells were homogenized in a lysis buffer containing 7 M urea, 2 M thiourea 50 mM DTT. The homogenates were spun down at 14000 g for 1 h at 15 °C. Before proteomic analysis, protein extracts were diluted with Laemmli sample buffer in 100 μL and loaded into a 0.75 mm thick polyacrylamide gel with a 4% stacking gel casted over a 12.5% resolving gel. The run was stopped as soon as the front entered 3 mm into the resolving gel so that the whole proteome became concentrated in the stacking/resolving gel interface. Bands were stained with Coomassie Brilliant Blue, excised from the gel and protein enzymatic cleavage was carried out with trypsin (Promega; 1:20, w/w) at 37 °C for 16 h as previously described. Purification and concentration of peptides was performed using C18 Zip Tip Solid Phase Extraction (Millipore).
(§3) Peptide mixtures were separated by reverse phase chromatography using an UltiMate 3000 UHLPC System (Thermo Scientific) fitted with an Aurora packed emitter column (lonopticks, 25 cm×75 μm ID, 1.6 μm C18). Samples were first loaded for desalting and concentration into an Acclaim PepMap column (ThermoFisher, 0.5 cm×300 μm ID, 5 μm C18) packed with the same chemistry as the separating column. Mobile phases were 100% water 0.1% formic acid (FA) (buffer A) and 100% Acetonitrile 0.1% FA (buffer B). Column gradient was developed in a 120 min two step gradient from 5% B to 20% B in 90 min and 20% B to 32% B in 30 min. Column was equilibrated in 95% B for 10 min and 5% B for 20 min. During the whole process, the precolumn was in line with the column and the flow maintained all along the gradient at 300 nl/min. The column temperature was maintained at 40 °C using an integrated column oven (PRSO-V2, Sonation, Biberach, Germany) and interfaced online with the Orbitrap Exploris 480 MS. Spray voltage were set to 2 kV, funnel RF level at 40, and heated capillary temperature at 300 °C. For DDA experiments full MS resolutions were set to […] at m/z 200 and full MS AGC target was set to Standard with an IT mode Auto. Mass range was set to 375-1500. AGC target value for fragment spectra was set to Standard with a resolution of 15,000 and 3 seconds for cycle time. The intensity threshold was kept at 8E3. Isolation width was set at 1.4 m/z. Normalized collision energy was set at 30%. All data were acquired in centroid mode using positive polarity and peptide match was set to off, and isotope exclusion was on.
(§4) Raw files were processed with MaxQuant v1.6.17.0 using the integrated Andromeda Search engine. All data were searched against a target/decoy version of the mouse Uniprot Reference Proteome with March 2021 release. First search peptide tolerance was set to 20 ppm, main search peptide tolerance was set to 4.5 ppm. Fragment mass tolerance was set to 20 ppm. Trypsin was specified as enzyme, […] carbamidomethylation of cysteine was specified as fixed modification and peptide N-terminal acetylation, oxidation of methionine, deamidation of asparagine and glutamine and pyro-glutamate formation from glutamine and glutamate were considered variable modifications with a total of two variable modifications per peptide. […]

TAMCs = assay: quantitative proteomics and Ingenuity Pathway Analysis of TAMCs (FIG. 2); type: cell-based, mouse
Procedure: as §1, §2, §3, §4

MDSC subsets = assay: abundance of MDSC subsets in vivo; details: LXR agonist
[1] = IPA, TAMCs, listed as Oleuropein

SMILES: C/C=C1/[C@H](O[C@@H]2O[C@H](CO)[C@@H](O)[C@H](O)[C@H]2O)OC=C(C(=O)OC)[C@H]1CC(=O)OCCc1ccc(O)c(O)c1 [oleuropein]
- T cell activation capacities (CD4 T cells; oleuropein-reprogrammed MDSCs and TAMs): enhanced T cell activation capacities
- immune cell activation (CD4 T cells; particularly CD4 T cell activation): induces an immune cell activation
- CD4 T cell stimulation assessed by IFNγ and IL-2 production (CD4 T cells; treated MDSCs as stimulators, 5 days): potently stimulated
- AMPK signaling (g-MDSC; IPA, g-MDSC): upregulation
- EIF2 signalling (g-MDSC; IPA, g-MDSC): downmodulated
- NET signaling (g-MDSC; IPA, g-MDSC): upregulation
- estrogen receptor signalling (g-MDSC; IPA, g-MDSC): downmodulated
- fatty acid beta-oxidation (g-MDSC; IPA, g-MDSC): activated
- fmIP signaling (g-MDSC; IPA, g-MDSC): upregulation
- granzyme A signalling (g-MDSC; IPA, g-MDSC): downmodulated
- mTOR signaling (g-MDSC; IPA, g-MDSC): upregulation
- phospholipids (g-MDSC; IPA, g-MDSC): decrease
- upstream regulator E2f3 (g-MDSC; IPA, g-MDSC): decrease
- upstream regulator Eif6 (g-MDSC; IPA, g-MDSC): increase
- upstream regulator Stat4 (g-MDSC; IPA, g-MDSC): inhibited
- upstream regulator Tbk1 (g-MDSC; IPA, g-MDSC): inhibited
- cellular programming / proteome of g-MDSC (g-MDSC; g-MDSC treated with oleuropein): acquiring an entirely different proteome
- differentiation of myeloid cells to g-MDSC (g-MDSC; g-MDSC treated with oleuropein): prevented
- CD40 (TAMCs; IPA, TAMCs): down-regulated
- Fatty acid β-oxidation I signalling (TAMCs; IPA, TAMCs): up-regulated; also recorded: Regulated expression
- IL-9 signalling (TAMCs; IPA, TAMCs): down-regulated
- LXR/RXR signalling (TAMCs; IPA, TAMCs): up-regulated; also recorded: Regulated expression
- RAN signalling (TAMCs; IPA, TAMCs): down-regulated
- TREM1 (TAMCs; IPA, TAMCs): inhibition; also recorded: inhibited
- cyclic adenosine monophosphate (cAMP) pathway (TAMCs; IPA, TAMCs): inhibition; also recorded: inhibited
- estrogen signalling (TAMCs; IPA, TAMCs): downregulated
- global reprogramming of TAMCs / immunosuppressive pathways (TAMCs; IPA, TAMCs): major reprogramming of intracellular pathways; also recorded: reprograms the immunosuppressive properties of TAMCs; also recorded: major global reprogramming of TAMCs by deactivating immunosuppressive pathways
- insulin signalling (TAMCs; IPA, TAMCs): downregulated
- pathways regulating lipid metabolism (Sirtuin, polyamines, PPAR-a/RXR-a) (TAMCs; IPA, TAMCs): altered
- TREM1 (TAMCs; [1]): reduced
- cyclic adenosine monophosphate (cAMP) pathway (TAMCs; [1]): down-regulated
- proteomic profile (TAMCs; oleuropein-treated vs untreated, FDR<1%): distinct proteomic profiles
- abundance of MDSC subsets and of immunosuppressive TME (MDSC subsets): reduced the abundance of MDSC subsets in vivo as well as of immunosuppressive TME
